Read-outs that look alike come from different tables or passages of the source.
Legend:
[1] = biological target: T1, PI3Kδ (Homo sapiens, UniProt O00329); assay: PI3 Kinase HTRF assay, PI3Kδ; assay type: biochemical; conditions: 10 μM PIP2, 10 μM ATP, read-out: PI3K δ IC50
T1 construct: purchased Millipore Corporation 14-604-K
Description: (§1) A PI3-Kinase HTRF® assay kit (cat No. 33-016) purchased from Millipore Corporation was used to screen compounds provided herein. This assay used specific, high affinity binding of the GRP1 pleckstrin homology (PH) domain to PIP3, the product of a Class 1A or 1B PI3 Kinase acting on its physiological substrate PIP2. During the detection phase of the assay, a complex was generated between the GST-tagged PH domain and biotinylated short chain PIP3. The biotinylated PIP3 and the GST-tagged PH domain recruited fluorophores (Streptavidin-Allophycocyanin and Europium-labeled anti-GST respectively) to form the fluorescence resonance energy transfer (FRET) architecture, generating a stable time-resolved FRET signal. The FRET complex was disrupted in a competitive manner by non-biotinylated PIP3, a product formed in the PI3 Kinase assay.
(§2) PI3 Kinase α, β, γ and δ activity was assayed using the PI3 Kinase HTRF® assay kit (catalogue No. 33-016) purchased from Millipore Corporation. Purified recombinant PI3Kα (catalogue No. 14-602-K), PI3Kβ (catalogue No. 14-603-K), PI3Kγ (catalogue No. 14-558-K) and PI3Kδ (catalogue No. 14-604-K) were obtained from Millipore Corporation. Purified recombinant PI3K enzyme was used to catalyze the phosphorylation of phosphatidylinositol 4,5-bisphosphate (PIP2 at 10 μM) to phosphatidylinositol 3,4,5-trisphosphate (PIP3) in the presence of 10 μM ATP. The assay was carried out in 384-well format and detected using a Perkin Elmer EnVision Xcite Multilabel Reader. Emission ratios were converted into percent inhibitions and imported into GraphPad Prism software. The concentration necessary to achieve inhibition of enzyme activity by 50% (IC50) was calculated using concentrations ranging from 20 μM to 0.1 nM (12-point curve). IC50 values were determined using a nonlinear regression model available in GraphPad Prism 5. […]

[2] = biological target: PI3Kβ; assay: PI3 Kinase HTRF assay, PI3Kβ; assay type: biochemical, human; conditions: 10 μM PIP2, 10 μM ATP; 'Greater than 10 μM' and 'Greater than 1 μM to 10 μM'; read-out: PI3K β IC50
Outline: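 Recombinant PI3Kβ converting PIP2 (10 μM) to PIP3 with 10 μM ATP; PIP3 detected by competitive HTRF displacement of biotin-PIP3/GST-GRP1 PH domain complex. Emission ratios converted to % inhibition; IC50 by nonlinear regression.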

[3] = system: Balb/c splenic B cells; assay: B cell activation and proliferation assay (Alamar Blue); assay type: cell-based; conditions: Mus musculus
Outline: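 Balb/c splenic B cells (Ficoll, then MACS purification; 50,000/well) were preincubated 30 min with compound at 0.2% final DMSO. They were then stimulated 72 h at 37 °C with a cocktail of 10 μg/ml LPS, or 5 μg/ml anti-mouse F(ab′)2 plus 2 ng/ml mouse IL4. Alamar Blue was read after 5 h at 560Ex/590Em, giving IC50 or EC50.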

[4] = biological target: T2, PI3Kγ (Homo sapiens, UniProt P48736); assay: PI3 Kinase HTRF assay, PI3Kγ; assay type: biochemical; conditions: 10 μM PIP2, 10 μM ATP; 'Greater than 10 μM' and 'Greater than 1 μM to 10 μM'; read-out: PI3K γ IC50
T2 construct: purchased Millipore Corporation 14-558-K
Description: as §1, §2

[5] = biological target: T3, PI3Kα (Homo sapiens, UniProt P42336); assay: PI3 Kinase HTRF assay, PI3Kα; assay type: biochemical; conditions: 10 μM PIP2, 10 μM ATP; 'Greater than 10 μM' and 'Greater than 1 μM to 10 μM'; read-out: PI3K α IC50
T3 construct: purchased Millipore Corporation 14-602-K
Description: as §1, §2

[6] = system: phospho-AKT in RAW 264.7 cells (PI3Kγ); assay: PI3Kγ selective cellular assay: phospho-AKT in C5a stimulated RAW 264.7 cells; assay type: cell-based; conditions: Mus musculus, RAW264.7, range with units in value, read-out: IC50 for phospho-AKT, RAW 264.7 cell model
Description: A compound's ability in selectively inhibiting PI3Kγ can be assessed using RAW264.7 macrophages. Briefly, serum-starved PAW264.7 cells are stimulated with a known GPCR agonist C5a. (See, e.g., Camps et al., Nature Medicine (2005) 11(9): 936-943). Cells can be treated with test compounds prior to, simultaneously with, or subsequent to the stimulation by C5a. RAW 264.7 cells respond to the complement component fragment C5a through activation of the C5a receptor, and the C5a receptor activates macrophages and induces cell migration. Test compounds' ability to inhibit C5a-mediated AKT phosphorylation is indicative of selective inhibition of PI3Kγ. Thus, by monitoring the reduction of phospho-AKT in stimulated RAW 264.7 cells (using for example, phospho-AKT antibodies), a compound's potential efficacy in selectively inhibiting PI3Kγ can be assessed.
Certain compounds provided herein (e.g., Compounds I-21, I-86, I-87, I-91, I-106, and III-13) were tested in RAW 264.7 cell model using procedures as described above.

[7] = system: phospho-AKT in RAJI cells (PI3Kδ); assay: PI3Kδ selective cellular assay: phospho-AKT in anti-human IgM stimulated RAJI cells; assay type: cell-based; conditions: read-out: IC50 for phospho-AKT, RAJI cell model
Description: A compound's ability in selectively inhibiting PI3Kδ can be assessed using RAJI cells, i.e., B lymphocyte cells derived from lymphoma patients. Briefly, serum-starved RAJI cells are stimulated with anti-human IgM, thereby causing signaling through the B-cell receptors, as described in, for example, He et al., Leukemia Research (2009) 33: 798-802. B-cell receptor signaling is important for the activation, differentiation, and survival of B cells and certain B-cell derived cancers. Reduction of phospho-AKT is indicative of compounds that may inhibit B-cell proliferation and function in certain diseases. By monitoring the reduction of phospho-AKT in stimulated RAJI cells (using for example, phospho-AKT antibodies), a compound's potential efficacy in selectively inhibiting PI3Kδ can be assessed.
Certain compounds provided herein (e.g., Compounds I-21, I-86, I-87, I-91, I-106, and III-13) were tested in RAJI cell model using procedures as described above.

[8] = 'Greater than 10 μM' and 'Greater than 1 μM to 10 μM'
[9] = column 'Greater than 1 μM to 10 μM'

T3 sequence (P42336 whole entry): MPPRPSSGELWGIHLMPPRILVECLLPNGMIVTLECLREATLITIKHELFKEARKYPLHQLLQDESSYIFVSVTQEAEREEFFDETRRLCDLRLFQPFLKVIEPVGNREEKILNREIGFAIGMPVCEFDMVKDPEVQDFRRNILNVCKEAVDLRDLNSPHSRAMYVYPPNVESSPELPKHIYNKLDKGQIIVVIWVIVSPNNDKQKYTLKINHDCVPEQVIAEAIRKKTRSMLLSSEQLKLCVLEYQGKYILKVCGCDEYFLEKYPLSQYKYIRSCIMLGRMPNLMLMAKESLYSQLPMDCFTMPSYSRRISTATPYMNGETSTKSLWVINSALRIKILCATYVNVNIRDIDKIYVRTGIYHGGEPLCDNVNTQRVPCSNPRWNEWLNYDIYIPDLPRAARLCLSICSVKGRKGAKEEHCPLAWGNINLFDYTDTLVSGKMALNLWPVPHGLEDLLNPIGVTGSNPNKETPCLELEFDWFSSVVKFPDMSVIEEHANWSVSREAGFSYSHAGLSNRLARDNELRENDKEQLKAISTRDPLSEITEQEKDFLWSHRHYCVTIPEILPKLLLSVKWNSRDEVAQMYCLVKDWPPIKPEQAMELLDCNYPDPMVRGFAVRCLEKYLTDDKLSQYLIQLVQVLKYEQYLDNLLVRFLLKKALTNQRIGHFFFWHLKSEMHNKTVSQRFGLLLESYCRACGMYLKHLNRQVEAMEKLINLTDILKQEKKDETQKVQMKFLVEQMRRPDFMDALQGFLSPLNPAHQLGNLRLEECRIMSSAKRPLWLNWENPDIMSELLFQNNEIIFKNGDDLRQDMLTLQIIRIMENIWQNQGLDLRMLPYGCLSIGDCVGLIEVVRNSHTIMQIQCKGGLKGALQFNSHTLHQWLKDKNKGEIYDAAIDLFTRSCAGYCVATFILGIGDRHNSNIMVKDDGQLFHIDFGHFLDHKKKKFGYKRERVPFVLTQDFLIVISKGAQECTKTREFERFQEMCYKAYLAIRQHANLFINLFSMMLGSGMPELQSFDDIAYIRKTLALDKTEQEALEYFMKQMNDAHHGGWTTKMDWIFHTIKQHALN
T3 sequence (P27986 whole entry partner): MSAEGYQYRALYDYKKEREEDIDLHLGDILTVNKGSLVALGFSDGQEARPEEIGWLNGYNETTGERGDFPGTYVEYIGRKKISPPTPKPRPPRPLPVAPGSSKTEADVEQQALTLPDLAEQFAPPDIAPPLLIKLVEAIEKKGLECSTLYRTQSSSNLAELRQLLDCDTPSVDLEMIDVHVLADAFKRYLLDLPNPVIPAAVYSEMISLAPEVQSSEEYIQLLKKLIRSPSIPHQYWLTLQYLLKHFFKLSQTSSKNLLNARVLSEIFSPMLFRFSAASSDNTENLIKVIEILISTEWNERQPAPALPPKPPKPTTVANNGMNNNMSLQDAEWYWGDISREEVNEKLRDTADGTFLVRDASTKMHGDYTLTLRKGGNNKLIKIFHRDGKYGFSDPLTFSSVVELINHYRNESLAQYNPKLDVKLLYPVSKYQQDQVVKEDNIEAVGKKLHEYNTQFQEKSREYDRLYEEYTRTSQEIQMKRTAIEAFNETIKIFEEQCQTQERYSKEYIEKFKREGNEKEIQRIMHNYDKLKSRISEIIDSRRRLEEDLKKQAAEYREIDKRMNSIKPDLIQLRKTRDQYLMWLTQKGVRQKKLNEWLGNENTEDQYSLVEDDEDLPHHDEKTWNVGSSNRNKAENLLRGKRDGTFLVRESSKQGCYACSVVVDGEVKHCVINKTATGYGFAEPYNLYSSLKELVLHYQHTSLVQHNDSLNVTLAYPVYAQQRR
Sequence of PI3Kβ (Q8BTI9 whole entry, the tested form may be a part): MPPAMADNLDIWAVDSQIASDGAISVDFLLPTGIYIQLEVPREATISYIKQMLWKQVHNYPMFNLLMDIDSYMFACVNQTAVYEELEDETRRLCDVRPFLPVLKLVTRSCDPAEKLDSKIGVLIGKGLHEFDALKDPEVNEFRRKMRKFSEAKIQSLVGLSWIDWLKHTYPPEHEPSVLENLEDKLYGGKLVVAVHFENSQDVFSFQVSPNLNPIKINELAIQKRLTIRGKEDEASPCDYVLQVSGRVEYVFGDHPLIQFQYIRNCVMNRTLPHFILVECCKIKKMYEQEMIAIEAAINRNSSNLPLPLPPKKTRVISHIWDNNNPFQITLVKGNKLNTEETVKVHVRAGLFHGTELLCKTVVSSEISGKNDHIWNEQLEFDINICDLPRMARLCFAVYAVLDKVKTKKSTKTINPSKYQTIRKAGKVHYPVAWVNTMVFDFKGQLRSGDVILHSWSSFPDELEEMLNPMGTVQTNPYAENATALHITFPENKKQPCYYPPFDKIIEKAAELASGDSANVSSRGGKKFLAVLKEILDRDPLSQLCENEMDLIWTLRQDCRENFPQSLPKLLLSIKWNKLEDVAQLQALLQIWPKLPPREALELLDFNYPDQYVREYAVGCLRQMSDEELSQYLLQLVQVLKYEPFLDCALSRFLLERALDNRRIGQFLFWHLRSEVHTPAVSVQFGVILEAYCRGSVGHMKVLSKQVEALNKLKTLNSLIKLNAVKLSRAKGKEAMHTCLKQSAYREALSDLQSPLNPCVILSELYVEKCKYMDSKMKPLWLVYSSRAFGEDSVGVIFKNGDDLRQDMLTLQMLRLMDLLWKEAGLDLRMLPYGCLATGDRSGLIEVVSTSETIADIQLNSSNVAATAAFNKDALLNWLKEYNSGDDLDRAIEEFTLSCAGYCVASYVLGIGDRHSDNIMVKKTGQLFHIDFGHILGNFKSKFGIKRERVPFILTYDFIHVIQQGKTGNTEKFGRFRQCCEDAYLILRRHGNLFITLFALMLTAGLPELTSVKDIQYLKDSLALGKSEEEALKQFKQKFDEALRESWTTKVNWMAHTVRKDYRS
T2 sequence (P48736 whole entry): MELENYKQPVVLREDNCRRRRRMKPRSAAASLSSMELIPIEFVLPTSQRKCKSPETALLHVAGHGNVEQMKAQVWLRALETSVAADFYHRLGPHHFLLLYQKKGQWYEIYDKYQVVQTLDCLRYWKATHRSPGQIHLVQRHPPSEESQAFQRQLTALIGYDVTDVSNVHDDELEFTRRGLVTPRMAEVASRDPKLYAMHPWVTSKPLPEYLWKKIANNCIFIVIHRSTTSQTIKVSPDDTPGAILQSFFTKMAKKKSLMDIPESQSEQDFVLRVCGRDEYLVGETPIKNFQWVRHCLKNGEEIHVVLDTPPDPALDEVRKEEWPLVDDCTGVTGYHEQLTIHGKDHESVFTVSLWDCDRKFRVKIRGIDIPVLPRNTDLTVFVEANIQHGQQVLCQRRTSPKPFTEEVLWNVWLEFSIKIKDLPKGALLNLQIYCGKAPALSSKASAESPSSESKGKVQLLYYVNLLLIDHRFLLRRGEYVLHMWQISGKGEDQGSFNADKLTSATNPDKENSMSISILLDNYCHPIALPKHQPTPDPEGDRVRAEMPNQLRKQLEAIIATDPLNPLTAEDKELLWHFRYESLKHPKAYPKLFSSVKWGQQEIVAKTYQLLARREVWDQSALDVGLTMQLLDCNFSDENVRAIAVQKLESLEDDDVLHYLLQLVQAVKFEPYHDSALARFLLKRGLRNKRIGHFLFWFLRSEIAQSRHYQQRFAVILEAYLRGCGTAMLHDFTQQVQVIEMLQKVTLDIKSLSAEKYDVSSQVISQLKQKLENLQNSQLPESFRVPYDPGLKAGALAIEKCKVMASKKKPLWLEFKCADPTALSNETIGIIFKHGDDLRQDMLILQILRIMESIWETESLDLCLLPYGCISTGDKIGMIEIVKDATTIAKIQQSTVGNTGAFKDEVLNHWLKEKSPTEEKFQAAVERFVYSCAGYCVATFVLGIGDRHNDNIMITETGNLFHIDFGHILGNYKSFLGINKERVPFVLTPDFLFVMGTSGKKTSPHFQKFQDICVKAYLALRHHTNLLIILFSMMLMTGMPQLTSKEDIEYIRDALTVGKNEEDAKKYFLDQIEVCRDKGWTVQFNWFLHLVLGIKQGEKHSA
T1 sequence (O00329 whole entry): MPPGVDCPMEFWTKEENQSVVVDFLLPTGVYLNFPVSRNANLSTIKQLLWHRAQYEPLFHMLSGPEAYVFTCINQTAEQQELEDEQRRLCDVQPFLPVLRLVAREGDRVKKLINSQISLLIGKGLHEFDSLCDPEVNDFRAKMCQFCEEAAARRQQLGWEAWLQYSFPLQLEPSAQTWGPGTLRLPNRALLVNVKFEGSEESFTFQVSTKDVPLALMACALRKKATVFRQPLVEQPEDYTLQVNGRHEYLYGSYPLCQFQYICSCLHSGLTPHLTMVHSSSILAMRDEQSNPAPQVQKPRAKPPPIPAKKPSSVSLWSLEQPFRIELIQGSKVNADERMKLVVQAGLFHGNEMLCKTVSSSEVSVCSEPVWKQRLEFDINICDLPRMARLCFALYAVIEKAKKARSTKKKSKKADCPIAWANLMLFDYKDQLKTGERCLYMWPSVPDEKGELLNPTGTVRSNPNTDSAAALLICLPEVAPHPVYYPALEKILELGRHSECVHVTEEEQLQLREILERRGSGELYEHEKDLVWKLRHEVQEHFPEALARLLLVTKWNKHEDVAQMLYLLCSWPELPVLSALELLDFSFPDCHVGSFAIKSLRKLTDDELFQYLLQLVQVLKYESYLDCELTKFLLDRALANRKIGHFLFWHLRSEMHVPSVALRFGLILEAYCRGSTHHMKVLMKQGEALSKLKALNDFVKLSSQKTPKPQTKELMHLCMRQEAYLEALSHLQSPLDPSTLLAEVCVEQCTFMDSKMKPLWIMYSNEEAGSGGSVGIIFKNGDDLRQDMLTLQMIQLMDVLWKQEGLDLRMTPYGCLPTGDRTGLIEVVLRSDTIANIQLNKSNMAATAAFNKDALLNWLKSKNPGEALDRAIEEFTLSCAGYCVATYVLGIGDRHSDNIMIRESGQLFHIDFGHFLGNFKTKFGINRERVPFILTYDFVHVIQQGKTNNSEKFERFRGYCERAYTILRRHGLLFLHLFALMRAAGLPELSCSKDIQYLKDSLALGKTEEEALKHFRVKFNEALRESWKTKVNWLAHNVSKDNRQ
T1 sequence (P27986 whole entry partner): as the sequence (P27986 whole entry partner) above

Row | SMILES | IC50 [1, 8] [µM] | IC50 [2] [µM] | IC50 [4] [µM] | further results
1 | C[C@H](Nc1nc(Cl)nc2nc(Cl)cnc12)c1cc2cccc(Cl)c2c(=O)n1-c1ccccc1 [IV-19] | 1 to 10 | > 10 | – | –
2 | C[C@H](Nc1nc(N)nc2cccnc12)c1cc2cccc(N(C)C)c2c(=O)n1-c1ccccc1 [Compound I-102] | 1 to 10 | > 10 | – | –
3 | C[C@H](Nc1ncnc2cccnc12)c1cc2scc(-c3cnn(C)c3)c2c(=O)n1-c1ccccc1 [Compound I-30] | 1 to 10 | > 10 | – | –
4 | COc1ncc(-c2cccc3cc([C@H](C)Nc4cc(O)nc5cccnc45)n(-c4ccccc4)c(=O)c23)cn1 [Compound I-99] | 1 to 10 | > 10 | – | EC50 [3, 9]: 1 to 10 µM
5 | C[C@H](NCc1cnc2cccnn12)c1cc2cccc(Cl)c2c(=O)n1-c1ccccc1 [IV-9, (S)-8-chloro-3-(1-(imidazo[1,2-b]pyridazin-3-ylmethylamino)ethyl)-2-phenylisoquinolin-1(2H)-one] | 1 to 10 | > 10 | – | –
6 | C[C@H](Nc1ncc2[nH]cnc2n1)c1cc2cccc(Cl)c2c(=O)n1-c1ccccc1 [IV-7] | 1 to 10 | > 10 | – | –
7 | C[C@H](Nc1ncnc2cccnc12)c1cc2cc(F)ccc2c(=O)n1-c1ccccc1 [Compound I-6] | – | > 10 | 1 to 10 | EC50 ([3]; 1 μM to 100 nM): 0.1 to 1 µM; IC50 [5]: 1 to 10 µM
8 | CC(C)n1c([C@H](C)Nc2ncnc3cccnc23)cc2cccc(-c3ccc(=O)n(C)c3)c2c1=O [Compound I-106] | – | 1 to 10 | 1 to 10 | IC50 [6]: 0.1 to 1 µM; IC50 [7]: < 0.1 µM; IC50 [5]: 1 to 10 µM
9 | C[C@H](Nc1ccnn2ccnc12)c1cc2cccc(Cl)c2c(=O)n1CCN1CCCC1 [II-29] | 1 to 10 | 1 to 10 | – | –
10 | C[C@H](Nc1ncnn2cncc12)c1cc2cccc(C(F)(F)F)c2c(=O)n1-c1ccccc1 [III-28] | 1 to 10 | > 10 | – | –
11 | C[C@H](Nc1nc(Cl)nc2cccnc12)c1cc2cccc(Cl)c2c(=O)n1-c1ccccc1 [Compound I-52] | 1 to 10 | > 10 | – | EC50 ([3]; 1 μM to 100 nM): 0.1 to 1 µM
12 | C[C@H](Nc1nc(Cl)nc2nccnc12)c1cc2cccc(Cl)c2c(=O)n1-c1ccccc1 [IV-20] | 1 to 10 | > 10 | 1 to 10 | –
13 | C[C@H](Nc1ncnn2cncc12)c1cc2cccc(Cl)c2c(=O)n1-c1cccc(F)c1 [IV-14] | 1 to 10 | > 10 | – | –
14 | Cc1cn2nccc(N[C@@H](C)c3cc4cccc(Cl)c4c(=O)n3-c3ccccc3)c2n1 [II-32] | 1 to 10 | > 10 | 1 to 10 | –
15 | Cc1ccnc2cc(C(C)Nc3ncnc4cccnc34)[nH]c(=O)c12 (stereo not drawn) [Compound I-68, 4-methyl-7-(1-(pyrido[3,2-d]pyrimidin-4-ylamino)ethyl)-1,6-naphthyridin-5(6H)-one] | 1 to 10 | > 10 | – | –
16 | Cc1cn2nccc(N[C@@H](C)c3cc4cccc(Cl)c4c(=O)n3-c3cccc(F)c3)c2n1 [II-31] | 1 to 10 | > 10 | 1 to 10 | –
17 | C[C@H](Nc1cc(Cl)nn2ccnc12)c1cc2cccc(-c3cnn(C)c3)c2c(=O)n1C1CC1 [II-13] | 1 to 10 | > 10 | 1 to 10 | –
18 | C[C@H](Nc1nc(Cl)nc2cccnc12)c1cc2cccc(C(F)(F)F)c2c(=O)n1-c1ccccc1 [III-22] | 1 to 10 | > 10 | – | –
19 | C[C@@H](Nc1ncnc2cc(F)ccc12)c1cc2cccc(Cl)c2c(=O)n1-c1ccccc1 [IV-1] | > 10 | > 10 | > 10 | IC50 [5]: > 10 µM
20 | C[C@@H](Nc1ncnc2cc(F)c(F)cc12)c1cc2cccc(Cl)c2c(=O)n1-c1ccccc1 [IV-3] | > 10 | > 10 | > 10 | IC50 [5]: > 10 µM
21 | C[C@H](Nc1ncnc2cccnc12)c1cc2cccc(-c3cnn(C)c3)c2c(=O)n1C [Compound I-46] | 1 to 10 | > 10 | 1 to 10 | –
22 | C[C@H](Nc1ncnc2cccnc12)c1cc2c(F)ccc(Cl)c2c(=O)n1-c1ccccc1 [Compound I-14] | – | – | – | IC50 ([1]; 'Less than 100 nM'): < 0.1 µM; EC50 ([3]; 'Less than 100 nM'): < 0.1 µM
23 | C[C@H](Nc1ccnc2ccnn12)c1cc2cccc(Cl)c2c(=O)n1CCN1CCCC1 [II-28] | 1 to 10 | 1 to 10 | – | –
24 | Cc1cn2nccc(N[C@@H](C)c3cc4cccc(-c5cnn(C)c5)c4c(=O)n3-c3ccccc3)c2n1 [II-33] | 1 to 10 | > 10 | 1 to 10 | –
25 | C[C@H](Nc1cc(O)nc2cccnc12)c1cc2cccc(Cl)c2c(=O)n1-c1ccccc1 [Compound I-100] | 1 to 10 | > 10 | 1 to 10 | EC50 [3, 9]: 1 to 10 µM

Source: patent publication US8969363B2, “Heterocyclic compounds and uses thereof” (Infinity Pharmaceuticals, Inc., priority 2011, dated 2015)
